Measured values: PubChem BioAssay AID2060624 (Molecular Pharmacology Branch, DTP, NCI, 2025)
pIC50: −log10 of the molar value.

System: 217524-143-R1-J4-PDC spheroids with HUVEC/MSC, viability
Assay: Anticancer human tumor 217524-143-R1-J4-PDC patient-derived pancreatic carcinoma cell line growth inhibition [CLK]
Details: for pIC50: curve of first compound; for viability, T/C: stronger effect = lower value
Summary of the method: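 Patient-derived tumor cells grown as complex spheroids with HUVEC endothelial cells and mesenchymal stem cells, treated with drug combinations. Concentrations descend in half-log steps from near clinical Cmax, or from 10 microM if Cmax unknown.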

[1] = second compound 0.0316 µM, first compound 0.0316 µM
[2] = second compound 0.0316 µM, first compound 0.1 µM
[3] = second compound 0.0316 µM, first compound 0.316 µM
[4] = second compound 0.0316 µM, first compound 1 µM
[5] = second compound 0.1 µM, first compound 0.0316 µM
[6] = second compound 0.1 µM, first compound 0.1 µM
[7] = second compound 0.1 µM, first compound 0.316 µM
[8] = second compound 0.1 µM, first compound 1 µM
[9] = second compound 0.316 µM, first compound 0.0316 µM
[10] = second compound 0.316 µM, first compound 0.1 µM
[11] = second compound 0.316 µM, first compound 0.316 µM
[12] = second compound 0.316 µM, first compound 1 µM
[13] = second compound 1 µM, first compound 0.0316 µM
[14] = second compound 1 µM, first compound 0.1 µM
[15] = second compound 1 µM, first compound 0.316 µM
[16] = second compound 1 µM, first compound 1 µM
[17] = second compound 3.16 µM, first compound 0.0316 µM
[18] = second compound 3.16 µM, first compound 0.1 µM
[19] = second compound 3.16 µM, first compound 0.316 µM
[20] = second compound 3.16 µM, first compound 1 µM
[21] = second compound 10 µM, first compound 0.0316 µM
[22] = second compound 10 µM, first compound 0.1 µM
[23] = second compound 10 µM, first compound 0.316 µM
[24] = second compound 10 µM, first compound 1 µM
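Also: spheroids exposed to agents for seven days before reading.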
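For viability, T/C in this document: 100% = DMSO vehicle control viability.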

`CC(=O)O[C@H]1C(=O)[C@@]2(C)[C@H]([C@H](OC(=O)c3ccccc3)[C@]3(O)C[C@H](OC(=O)[C@H](O)[C@@H](NC(=O)c4ccccc4)c4ccccc4)C(C)=C1C3(C)C)[C@]1(OC(C)=O)CO[C@@H]1C[C@@H]2O` + CN1CCN(c2cc(C(=O)Nc3cc4cc(-c5cnn(C)c5)ccc4cn3)ccn2)CC1 was tested, and the pIC50 (second compound 0.0316 µM) was > 7.50, the pIC50 (second compound 0.1 µM) was > 7.50 and the pIC50 (second compound 0.316 µM) was > 7.50. The pIC50 (second compound 1 µM) was > 7.50, the pIC50 (second compound 3.16 µM) was > 7.50 and the pIC50 (second compound 10 µM) was > 7.50. For the same molecule, the viability, T/C [1] was 14.5%, the viability, T/C [2] was 10.6% and the viability, T/C [3] was 10.8%. The viability, T/C [4] was 11.5%, the viability, T/C (second compound 0.0316 µM, first compound 3.16 µM) was 12.1% and the viability, T/C (second compound 0.0316 µM, first compound 10 µM) was 16.4%. It also gave a viability, T/C [5] of 11.9%, a viability, T/C [6] of 12.1% and a viability, T/C [7] of 9.82%. It also gave a viability, T/C [8] of 10.7%, a viability, T/C (second compound 0.1 µM, first compound 3.16 µM) of 10.8% and a viability, T/C (second compound 0.1 µM, first compound 10 µM) of 13.2%. It also gave a viability, T/C [9] of 11.1%, a viability, T/C [10] of 11.3% and a viability, T/C [11] of 10.7%. For the same molecule, the viability, T/C [12] was 9.41%, the viability, T/C (second compound 0.316 µM, first compound 3.16 µM) was 11.7% and the viability, T/C (second compound 0.316 µM, first compound 10 µM) was 12.3%. The viability, T/C [13] was 1.11%, the viability, T/C [14] was 1.3% and the viability, T/C [15] was 1.35%. For the same molecule, the viability, T/C [16] was 1.2%, the viability, T/C (second compound 1 µM, first compound 3.16 µM) was 2% and the viability, T/C (second compound 1 µM, first compound 10 µM) was 1.13%. For the same molecule, the viability, T/C [17] was 0.88%, the viability, T/C [18] was 0.73% and the viability, T/C [19] was 0.55%. For the same molecule, the viability, T/C [20] was 0.62%, the viability, T/C (second compound 3.16 µM, first compound 3.16 µM) was 1.1% and the viability, T/C (second compound 3.16 µM, first compound 10 µM) was 0.74%. It also gave a viability, T/C [21] of 0.12%, a viability, T/C [22] of 0.17% and a viability, T/C [23] of 0.16%. It also gave a viability, T/C [24] of 0.2%, a viability, T/C (second compound 10 µM, first compound 3.16 µM) of 0.34% and a viability, T/C (second compound 10 µM, first compound 10 µM) of 0.24%.

For `CCc1c2c(nc3ccc(O)cc13)-c1cc3c(c(=O)n1C2)COC(=O)[C@]3(O)CC` + CN1CCN(c2cc(C(=O)Nc3cc4cc(-c5cnn(C)c5)ccc4cn3)ccn2)CC1, the pIC50 (second compound 0.0316 µM) was > 8.50, the pIC50 (second compound 0.1 µM) was > 8.50 and the pIC50 (second compound 0.316 µM) was > 8.50. The pIC50 (second compound 1 µM) was > 8.50, the pIC50 (second compound 3.16 µM) was > 8.50 and the pIC50 (second compound 10 µM) was > 8.50. It also gave a viability, T/C (second compound 0.0316 µM, first compound 0.00316 µM) of 46.2%, a viability, T/C (second compound 0.0316 µM, first compound 0.01 µM) of 34.1% and a viability, T/C [1] of 28.7%. It also gave a viability, T/C [2] of 25.2%, a viability, T/C [3] of 17.5% and a viability, T/C [4] of 6.45%. The viability, T/C (second compound 0.1 µM, first compound 0.00316 µM) was 35.9%, the viability, T/C (second compound 0.1 µM, first compound 0.01 µM) was 30.1% and the viability, T/C [5] was 21.9%. The viability, T/C [6] was 17.5%, the viability, T/C [7] was 14.5% and the viability, T/C [8] was 5.83%. For the same molecule, the viability, T/C (second compound 0.316 µM, first compound 0.00316 µM) was 14.8%, the viability, T/C (second compound 0.316 µM, first compound 0.01 µM) was 12.7% and the viability, T/C [9] was 10.8%. The viability, T/C [10] was 4%, the viability, T/C [11] was 2.32% and the viability, T/C [12] was 1.82%. For the same molecule, the viability, T/C (second compound 1 µM, first compound 0.00316 µM) was 1.37%, the viability, T/C (second compound 1 µM, first compound 0.01 µM) was 1.13% and the viability, T/C [13] was 0.98%. For the same molecule, the viability, T/C [14] was 1.39%, the viability, T/C [15] was 1.84% and the viability, T/C [16] was 2.32%. For the same molecule, the viability, T/C (second compound 3.16 µM, first compound 0.00316 µM) was 1.13%, the viability, T/C (second compound 3.16 µM, first compound 0.01 µM) was 0.69% and the viability, T/C [17] was 1.06%. The viability, T/C [18] was 1.74%, the viability, T/C [19] was 1.87% and the viability, T/C [20] was 2.05%. For the same molecule, the viability, T/C (second compound 10 µM, first compound 0.00316 µM) was 0.09%, the viability, T/C (second compound 10 µM, first compound 0.01 µM) was 0.16% and the viability, T/C [21] was 0.24%. The viability, T/C [22] was 0.19%, the viability, T/C [23] was 0.31% and the viability, T/C [24] was 0.19%.
